Assay results taken from US20030199581A1, “Boswellin compositions enhanced with 3-beta-acetyl-11-keto-beta-boswellic acid ("AKBA") industrial manufacture and uses” (priority 2002, published 2003).
Like-named read-outs stand apart in the source and are kept apart here.

Columns and labels:
LNCaP cells = test: Growth inhibition by cell counting, LNCaP cells; assay type: cell-based; conditions: Homo sapiens, 100 μg/ml, read-out: growth inhibition as compared to controls
Protocol: DU145 and LNCaP cells were obtained from ATCC. The cells were grown in Eagle's MEM supplemented with 1 mM sodium pyruvate, 0.1 mM glutamine, 1.5 g/l sodium bicarbonate, and 10% fetal bovine serum. A confluent plate of cells contained approximately 2×10^6 DU145cells and 10^6 LNCaP cells.
The test drug dissolved in DMSO at a concentration of 100 mg/ml was added to 6 test plates and to control plates. Two control and two drug plates each were harvested with addition of 1 ml/plate of trypsin-EDTA at 24, 48, and 72 hrs and counted by […]. The trypsinized plates were incubated for 3 min at 37° C., and 5 ml DMEM was added to each plate. Cells were collected in 15 ml tubes, and 2 ml of each cell suspension was added to 20 ml Isoton and counted.

[1] = tested on: CEM (lymphoblastic leukemia); test: 3-day MTT assay, CEM cells; assay type: cell-based, human; conditions: 195 ng/ml phytochemical alone
Protocol: (§1) Biological activities of the materials produced as described in Examples 1 to 5 were determined using cultured cells. The IC50s of Boswellin (“BA1”), AKBA enriched peracetylated boswellin (“BA2”) and AKBA enriched boswellin (“BA3”) in various human and murine prostate, leukemia, melanoma, lung and breast cancer cell lines were determined. The IC50s were determined using a standard MTT assay using CEM (lymphoblastic leukemia), Du 145 (prostate cancer), PC-3 (prostate cancer), LNCaP (prostate cancer), Sk-MEL2 (human melanoma), P388D1 (murine leukemia), K562 (human mycloid leukemia), A549 (human lung cancer), MCF-7 (human breast cancer), B16F (murine melanoma) cancer cell lines (Table 2).
(§2) DU145, PC-3 and CEM cells in culture we studied to determine whether other natural products have synergistic effects with AKBA enriched boswellin. Methods for culturing the cells are described above in Example 6. To different samples of cells, we added AKBA enriched boswellin in concentrations from 0 to 120 μg/ml, resveratrol in concentrations from 0 to 3125 ng/ml, baicalin in concentrations from 0 to 3125 ng/ml and licochalcone A in concentrations from 0 to 800 μg/ml. In analogous concentrations combinations of AKBA enriched boswellin and resveratrol, baicalin and licochalcone A were studied. Cell survival was measured using the MTT assay described above.

DU145 (prostate cancer) = test: 3-day MTT assay, DU145 cells; assay type: cell-based, human; conditions: DU145, 195 ng/ml phytochemical alone
Protocol: as §1, §2

PC-3 (prostate cancer) = test: 3-day MTT assay, PC-3 cells; assay type: cell-based, human
Protocol: as §2, with “The IC50s were determined using a standard MTT assay using CEM (lymphoblastic leukemia), Du 145 (prostate cancer), PC-3 (prostate cancer), LNCaP (prostate cancer), Sk-MEL2 (human melanoma), P388D1 (murine leukemia), K562 (human mycloid leukemia), A549 (human lung cancer), MCF-7 (human breast cancer), B16F (murine melanoma) cancer cell lines (Table 2). […] DU145,” for “DU145,”

## O=c1c(-c2ccc(O)cc2)coc2cc(O)cc(O)c12 [Genistein]
LNCaP cells; 24 h
  inhibition at 100 µg/mL: 32%
LNCaP cells; 48 h
  inhibition at 100 µg/mL: 49.4%
LNCaP cells; 72 h
  inhibition at 100 µg/mL: 60.8%

## O=C(O)[C@H]1O[C@@H](Oc2cc3oc(-c4ccccc4)cc(=O)c3c(O)c2O)[C@H](O)[C@@H](O)[C@@H]1O [baicalin]
[1]
  % cell survival (conc. phytochemical): 85 (195 ng/ml baicalin) %
DU145 (prostate cancer)
  % cell survival (conc. phytochemical): 78 (195 ng/ml baicalin) %
PC-3 (prostate cancer); PC-3, 12 ng/ml phytochemical alone
  % cell survival (conc. phytochemical): 93 (12 ng/ml baicalin) %

## C=CC(C)(C)c1cc(/C=C/C(=O)c2ccc(O)cc2)c(OC)cc1O [licochalcone A]
PC-3 (prostate cancer); PC-3, 3.1 μg/ml phytochemical alone
  % cell survival (conc. phytochemical): 98 (3.1 μg/ml licochalcone A) %

## Oc1ccc(C=Cc2cc(O)cc(O)c2)cc1 [resveratrol]
[1]
  % cell survival (conc. phytochemical): 85 (195 ng/ml resveratrol) %
DU145 (prostate cancer)
  % cell survival (conc. phytochemical): 89 (195 ng/ml resveratrol) %
